Experimental data published in ChEMBL document CHEMBL2074246, “Distinct groups of multidrug resistance modulating agents are distinguished by competition of P-glycoprotein-specific antibodies” (Biochem Biophys Res Commun, 2004).
One block for each compound: values may come before it. Where a SMILES comes first, the peptide text is derived from it. [ ]: non-standard residue; d: D form. The star is where a group is joined. NHCH2CH2OH = OCCN*; For = O=C*

How the values were obtained:
Type in all cases: functional, cell-based
[1] = target: T1, ATP-dependent translocase ABCB1 (Homo sapiens, UniProt P08183); experiment: TP_TRANSPORTER: increase in Calcein-AM intracellular accumulation (Calcein-AM: 0.5 uM, Genistein: 40 uM) in MDR1-expressing NIH-3T3 cells; settings: mouse, nih3t3, 40 µM
T1 sequence (P08183 whole entry): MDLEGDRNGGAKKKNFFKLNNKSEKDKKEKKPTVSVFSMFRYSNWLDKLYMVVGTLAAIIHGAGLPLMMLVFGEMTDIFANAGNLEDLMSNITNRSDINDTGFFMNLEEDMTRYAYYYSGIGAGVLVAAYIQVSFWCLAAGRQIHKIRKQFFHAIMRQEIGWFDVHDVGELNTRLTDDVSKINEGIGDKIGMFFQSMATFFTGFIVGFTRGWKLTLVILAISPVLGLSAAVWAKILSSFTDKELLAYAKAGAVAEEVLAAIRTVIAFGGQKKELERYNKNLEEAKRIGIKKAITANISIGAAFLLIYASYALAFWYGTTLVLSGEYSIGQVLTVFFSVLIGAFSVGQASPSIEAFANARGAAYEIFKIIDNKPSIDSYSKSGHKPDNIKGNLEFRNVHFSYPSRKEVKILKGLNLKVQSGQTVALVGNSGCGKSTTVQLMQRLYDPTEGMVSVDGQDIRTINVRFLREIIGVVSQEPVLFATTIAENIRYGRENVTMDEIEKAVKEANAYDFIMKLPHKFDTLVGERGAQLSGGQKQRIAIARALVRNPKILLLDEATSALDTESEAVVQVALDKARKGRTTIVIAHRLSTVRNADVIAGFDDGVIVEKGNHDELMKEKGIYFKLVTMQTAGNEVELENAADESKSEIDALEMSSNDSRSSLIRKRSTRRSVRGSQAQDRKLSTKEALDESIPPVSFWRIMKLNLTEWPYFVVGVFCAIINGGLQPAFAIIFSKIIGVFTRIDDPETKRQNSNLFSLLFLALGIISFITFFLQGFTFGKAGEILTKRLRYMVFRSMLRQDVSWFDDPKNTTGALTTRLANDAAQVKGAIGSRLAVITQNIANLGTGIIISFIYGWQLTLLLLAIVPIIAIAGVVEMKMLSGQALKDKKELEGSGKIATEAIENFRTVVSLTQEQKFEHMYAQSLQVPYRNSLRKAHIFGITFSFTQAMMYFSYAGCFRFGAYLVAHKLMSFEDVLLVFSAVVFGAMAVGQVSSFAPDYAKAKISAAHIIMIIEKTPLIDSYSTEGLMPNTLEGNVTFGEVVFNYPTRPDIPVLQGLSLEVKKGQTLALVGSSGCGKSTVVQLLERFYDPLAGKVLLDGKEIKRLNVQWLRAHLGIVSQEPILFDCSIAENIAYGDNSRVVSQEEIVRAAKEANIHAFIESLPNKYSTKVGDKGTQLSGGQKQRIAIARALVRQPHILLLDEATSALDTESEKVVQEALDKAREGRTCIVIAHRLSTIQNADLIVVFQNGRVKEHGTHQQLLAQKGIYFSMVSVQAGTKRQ

[2] = target: T1, ATP-dependent translocase ABCB1; experiment: TP_TRANSPORTER: increase in Calcein-AM intracellular accumulation (Calcein-AM: 0.5uM, Nonidet P-40:6x10-4a%) in MDR1-expressing NIH-3T3 cells; settings: mouse, nih3t3
[3] = target: T1, ATP-dependent translocase ABCB1; experiment: TP_TRANSPORTER: increase in Calcein-AM intracellular accumulation (Calcein-AM: 0.5 uM, Ivermectin: 20 uM) in MDR1-expressing NIH-3T3 cells; settings: mouse, nih3t3, 20 µM
[4] = target: T1, ATP-dependent translocase ABCB1; experiment: TP_TRANSPORTER: increase in Calcein-AM intracellular accumulation (Calcein-AM: 0.5 uM, Progesterone: 10 uM) in MDR1-expressing NIH-3T3 cells; settings: mouse, nih3t3, 10 µM
[5] = target: T1, ATP-dependent translocase ABCB1; experiment: TP_TRANSPORTER: increase in Calcein-AM intracellular accumulation (Calcein-AM: 0.5 uM, Mitomycin C: 20 uM) in MDR1-expressing NIH-3T3 cells; settings: mouse, nih3t3, 20 µM
[6] = target: T1, ATP-dependent translocase ABCB1; experiment: TP_TRANSPORTER: increase in Calcein-AM intracellular accumulation (Calcein-AM: 0.5 uM, o-Amsacrine: 5 uM) in MDR1-expressing NIH-3T3 cells; settings: mouse, nih3t3, 5 µM
[7] = target: T1, ATP-dependent translocase ABCB1; experiment: TP_TRANSPORTER: increase in Calcein-AM intracellular accumulation (Calcein-AM: 0.5 uM, Colchicine: 100 uM) in MDR1-expressing NIH-3T3 cells; settings: mouse, nih3t3, 100 µM
[8] = target: T1, ATP-dependent translocase ABCB1; experiment: TP_TRANSPORTER: increase in Calcein-AM intracellular accumulation (Calcein-AM: 0.5 uM, Galangin: 50 uM) in MDR1-expressing NIH-3T3 cells; settings: mouse, nih3t3, 50 µM
[9] = target: T1, ATP-dependent translocase ABCB1; experiment: TP_TRANSPORTER: increase in Calcein-AM intracellular accumulation (Calcein-AM: 0.5 uM, Gramicidin D: 10 uM) in MDR1-expressing NIH-3T3 cells; settings: mouse, nih3t3, 10 µM
[10] = target: T1, ATP-dependent translocase ABCB1; experiment: TP_TRANSPORTER: increase in Calcein-AM intracellular accumulation (Calcein-AM: 0.5 uM, Quinine: 20 uM) in MDR1-expressing NIH-3T3 cells; settings: mouse, nih3t3, 20 µM
[11] = target: T1, ATP-dependent translocase ABCB1; experiment: TP_TRANSPORTER: increase in Calcein-AM intracellular accumulation (Calcein-AM: 0.5 uM, Tween 20: 1.4x10-3a%) in MDR1-expressing NIH-3T3 cells; settings: mouse, nih3t3
[12] = target: T1, ATP-dependent translocase ABCB1; experiment: TP_TRANSPORTER: increase in Calcein-AM intracellular accumulation (Calcein-AM: 0.5 uM, Haloperidol: 80 uM) in MDR1-expressing NIH-3T3 cells; settings: mouse, nih3t3, 80 µM
[13] = target: T1, ATP-dependent translocase ABCB1; experiment: TP_TRANSPORTER: increase in Calcein-AM intracellular accumulation (Calcein-AM: 0.5 uM, Imipramine: 20 uM) in MDR1-expressing NIH-3T3 cells; settings: mouse, nih3t3, 20 µM
[14] = target: T1, ATP-dependent translocase ABCB1; experiment: TP_TRANSPORTER: increase in Calcein-AM intracellular accumulation (Calcein-AM: 0.5 uM, Lidocaine: 20 uM) in MDR1-expressing NIH-3T3 cells; settings: mouse, nih3t3, 20 µM
[15] = target: T1, ATP-dependent translocase ABCB1; experiment: TP_TRANSPORTER: increase in Calcein-AM intracellular accumulation (Calcein-AM: 0.5 uM, Rapamycin: 20 uM) in MDR1-expressing NIH-3T3 cells; settings: mouse, nih3t3, 20 µM

Compound: CC(C)(C)CC(C)(C)c1ccc(OCCOCCO)cc1
- Activity [2]: inhibitor [+]

Compound: IVERMECTIN
- Activity [3]: inhibitor [+]

Compound: CC(=O)[C@H]1CC[C@H]2[C@@H]3CCC4=CC(=O)CC[C@]4(C)[C@H]3CC[C@]12C [PROGESTERONE]
- Activity [4]: inhibitor [+]

Compound: CO[C@@]12[C@H](COC(N)=O)C3=C(C(=O)C(C)=C(N)C3=O)N1C[C@@H]1N[C@@H]12 [MITOMYCIN]
- Activity [5]: is not an inhibitor [-]

Compound: COc1cc2c(c(OC)c1OC)-c1ccc(OC)c(=O)cc1[C@@H](NC(C)=O)CC2 [COLCHICINE]
- Activity [7]: is not an inhibitor [-]

Compound: O=c1c(O)c(-c2ccccc2)oc2cc(O)cc(O)c12 [GALANGIN]
- Activity [8]: inhibitor [+]

Compound: CC(C)C[C@@H](NC(=O)[C@H](C)NC(=O)CNC(=O)[C@@H](NC=O)C(C)C)C(=O)N[C@@H](C)C(=O)N[C@@H](C(=O)N[C@H](C(=O)N[C@@H](C(=O)N[C@@H](Cc1c[nH]c2ccccc12)C(=O)N[C@H](CC(C)C)C(=O)N[C@@H](Cc1c[nH]c2ccccc12)C(=O)N[C@H](CC(C)C)C(=O)N[C@@H](Cc1c[nH]c2ccccc12)C(=O)N[C@H](CC(C)C)C(=O)N[C@@H](Cc1c[nH]c2ccccc12)C(=O)NCCO)C(C)C)C(C)C)C(C)C [GRAMICIDIN D] (For-VGA[dL]A[dV]V[dV]W[dL]W[dL]W[dL]W-NHCH2CH2OH)
- Activity [9]: is not an inhibitor [-]

Compound: CCN(CC)CC(=O)Nc1c(C)cccc1C [LIDOCAINE]
- Activity [14]: is not an inhibitor [-]

Compound: CO[C@H]1C[C@@H]2CC[C@@H](C)[C@@](O)(O2)C(=O)C(=O)N2CCCC[C@H]2C(=O)O[C@H]([C@H](C)C[C@@H]2CC[C@@H](O)[C@H](OC)C2)CC(=O)[C@H](C)/C=C(\C)[C@@H](O)[C@@H](OC)C(=O)[C@H](C)C[C@H](C)/C=C/C=C/C=C/1C [SIROLIMUS]
- Activity [15]: inhibitor [+]

Results, then the compound that gave them:

- Activity [1]: inhibitor [+]
Compound: O=c1c(-c2ccc(O)cc2)coc2cc(O)cc(O)c12 [GENISTEIN]

- Activity [6]: inhibitor [+]
Compound: COc1cc(Nc2c3ccccc3nc3ccccc23)ccc1NS(C)(=O)=O [o-Amsacrine]

- Activity [10]: inhibitor [+]
Compound: C=C[C@H]1C[N@@]2CC[C@H]1C[C@H]2[C@H](O)c1ccnc2ccc(OC)cc12 [QUININE]

- Activity [11]: inhibitor [+]
Compound: CCCCCCCCCCCC(=O)OCCOCCOCCOCCOCCOCCOCCOCCOCCOCCOCCOCCOCCOCCOCCOCCOCCOCCOCCOCCOCC(OCCOCCOCCOCCOCCOCCOCCOCCOCCOCCOCCOCCOCCOCCOCCOCCOCCOCCOCCOCCO)C1OCC(OCCOCCOCCOCCOCCOCCOCCOCCOCCOCCOCCOCCOCCOCCOCCOCCOCCOCCOCCOCCO)C1OCCOCCOCCOCCOCCOCCOCCOCCOCCOCCOCCOCCOCCOCCOCCOCCOCCOCCOCCOCCO (stereo not given) [TWEEN 20]

- Activity [12]: inhibitor [+]
Compound: O=C(CCCN1CCC(O)(c2ccc(Cl)cc2)CC1)c1ccc(F)cc1 [HALOPERIDOL]

- Activity [13]: inhibitor [+]
Compound: CN(C)CCCN1c2ccccc2CCc2ccccc21 [IMIPRAMINE]
